According to patent US12662479B2 (Foghorn Therapeutics Inc., priority 2020, dated 2026):

How the values were obtained:
HiBit-BRM fusion protein = biological target: T1, HiBit-BRM fusion protein (Homo sapiens, UniProt P51531); experiment: HiBiT-BRM cell-based degradation assay (Nano-Glo HiBiT Lytic Detection, 24 h); conditions: HeLa cells expressing HiBiT-BRM; for DC50: read-out: BRM HiBit Degradation IC50; for BRM HiBit Degradation Maximum measured: top dose 30 μM
T1 construct: expressed in transfected cells
T1 sequence (P51531 whole entry, the tested form may be a part): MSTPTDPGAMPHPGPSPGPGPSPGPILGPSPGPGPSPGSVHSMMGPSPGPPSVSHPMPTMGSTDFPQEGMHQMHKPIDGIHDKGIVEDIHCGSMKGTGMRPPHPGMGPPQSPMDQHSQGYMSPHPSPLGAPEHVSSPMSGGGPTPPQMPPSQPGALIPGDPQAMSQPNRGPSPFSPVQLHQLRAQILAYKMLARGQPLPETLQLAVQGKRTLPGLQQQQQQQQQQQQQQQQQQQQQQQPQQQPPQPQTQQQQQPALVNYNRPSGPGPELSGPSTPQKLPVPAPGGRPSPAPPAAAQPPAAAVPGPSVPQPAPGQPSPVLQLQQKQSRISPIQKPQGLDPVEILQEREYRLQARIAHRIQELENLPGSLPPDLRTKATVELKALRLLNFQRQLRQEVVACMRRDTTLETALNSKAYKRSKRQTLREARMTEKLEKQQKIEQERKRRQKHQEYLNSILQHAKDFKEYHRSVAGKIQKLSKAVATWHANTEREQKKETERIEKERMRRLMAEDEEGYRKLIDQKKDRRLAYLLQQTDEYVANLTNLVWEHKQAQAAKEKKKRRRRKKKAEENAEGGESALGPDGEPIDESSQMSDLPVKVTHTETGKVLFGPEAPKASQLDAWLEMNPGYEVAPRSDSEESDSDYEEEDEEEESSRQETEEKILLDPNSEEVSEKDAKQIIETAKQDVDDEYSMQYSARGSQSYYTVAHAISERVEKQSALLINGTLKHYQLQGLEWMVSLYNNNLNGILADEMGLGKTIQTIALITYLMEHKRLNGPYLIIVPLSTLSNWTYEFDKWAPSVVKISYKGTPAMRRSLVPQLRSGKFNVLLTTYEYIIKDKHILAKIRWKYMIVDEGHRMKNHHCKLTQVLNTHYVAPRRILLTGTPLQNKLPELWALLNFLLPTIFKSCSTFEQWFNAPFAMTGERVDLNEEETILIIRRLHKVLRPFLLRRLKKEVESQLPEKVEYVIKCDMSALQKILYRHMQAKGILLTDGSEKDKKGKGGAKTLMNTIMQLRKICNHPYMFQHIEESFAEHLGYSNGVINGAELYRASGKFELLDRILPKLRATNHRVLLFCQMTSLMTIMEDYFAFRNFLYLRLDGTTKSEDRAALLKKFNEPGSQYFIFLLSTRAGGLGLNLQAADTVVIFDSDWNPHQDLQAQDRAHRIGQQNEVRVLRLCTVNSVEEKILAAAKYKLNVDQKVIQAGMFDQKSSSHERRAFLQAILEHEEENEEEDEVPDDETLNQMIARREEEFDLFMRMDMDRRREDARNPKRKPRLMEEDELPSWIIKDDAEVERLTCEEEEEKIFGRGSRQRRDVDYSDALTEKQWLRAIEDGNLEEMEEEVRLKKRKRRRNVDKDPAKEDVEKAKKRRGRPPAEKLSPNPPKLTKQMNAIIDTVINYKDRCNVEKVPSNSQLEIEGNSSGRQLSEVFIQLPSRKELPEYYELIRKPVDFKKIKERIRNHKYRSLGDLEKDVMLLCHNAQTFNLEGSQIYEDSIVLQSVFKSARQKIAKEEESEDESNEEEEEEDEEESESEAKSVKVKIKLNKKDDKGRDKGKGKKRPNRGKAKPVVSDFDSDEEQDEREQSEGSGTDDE
Method in brief: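 Percent BRM loss was derived from HiBiT luminescence relative to DMSO-treated cells and cells given 2 μM of a known BRM/BRG1 degrader. Treatment lasted 24 h in HiBiT-BRM HeLa cells, with a top final concentration of 30 μM.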

[1] = biological target: T2, HiBit-BRG1 fusion protein (Homo sapiens, UniProt P51532); experiment: HiBiT-BRG1 cell-based degradation assay (Nano-Glo HiBiT Lytic Detection, 24 h); conditions: HeLa cells expressing HiBit-BRG1 and LgBit; for DC50: read-out: BRG1 HiBit Degradation IC50; for Dmax: HeLa, top dose 30 μM, read-out: BRG1 HiBit Degradation Maximum measured
T2 construct: expressed in transfected cells
T2 sequence (P51532 whole entry, the tested form may be a part): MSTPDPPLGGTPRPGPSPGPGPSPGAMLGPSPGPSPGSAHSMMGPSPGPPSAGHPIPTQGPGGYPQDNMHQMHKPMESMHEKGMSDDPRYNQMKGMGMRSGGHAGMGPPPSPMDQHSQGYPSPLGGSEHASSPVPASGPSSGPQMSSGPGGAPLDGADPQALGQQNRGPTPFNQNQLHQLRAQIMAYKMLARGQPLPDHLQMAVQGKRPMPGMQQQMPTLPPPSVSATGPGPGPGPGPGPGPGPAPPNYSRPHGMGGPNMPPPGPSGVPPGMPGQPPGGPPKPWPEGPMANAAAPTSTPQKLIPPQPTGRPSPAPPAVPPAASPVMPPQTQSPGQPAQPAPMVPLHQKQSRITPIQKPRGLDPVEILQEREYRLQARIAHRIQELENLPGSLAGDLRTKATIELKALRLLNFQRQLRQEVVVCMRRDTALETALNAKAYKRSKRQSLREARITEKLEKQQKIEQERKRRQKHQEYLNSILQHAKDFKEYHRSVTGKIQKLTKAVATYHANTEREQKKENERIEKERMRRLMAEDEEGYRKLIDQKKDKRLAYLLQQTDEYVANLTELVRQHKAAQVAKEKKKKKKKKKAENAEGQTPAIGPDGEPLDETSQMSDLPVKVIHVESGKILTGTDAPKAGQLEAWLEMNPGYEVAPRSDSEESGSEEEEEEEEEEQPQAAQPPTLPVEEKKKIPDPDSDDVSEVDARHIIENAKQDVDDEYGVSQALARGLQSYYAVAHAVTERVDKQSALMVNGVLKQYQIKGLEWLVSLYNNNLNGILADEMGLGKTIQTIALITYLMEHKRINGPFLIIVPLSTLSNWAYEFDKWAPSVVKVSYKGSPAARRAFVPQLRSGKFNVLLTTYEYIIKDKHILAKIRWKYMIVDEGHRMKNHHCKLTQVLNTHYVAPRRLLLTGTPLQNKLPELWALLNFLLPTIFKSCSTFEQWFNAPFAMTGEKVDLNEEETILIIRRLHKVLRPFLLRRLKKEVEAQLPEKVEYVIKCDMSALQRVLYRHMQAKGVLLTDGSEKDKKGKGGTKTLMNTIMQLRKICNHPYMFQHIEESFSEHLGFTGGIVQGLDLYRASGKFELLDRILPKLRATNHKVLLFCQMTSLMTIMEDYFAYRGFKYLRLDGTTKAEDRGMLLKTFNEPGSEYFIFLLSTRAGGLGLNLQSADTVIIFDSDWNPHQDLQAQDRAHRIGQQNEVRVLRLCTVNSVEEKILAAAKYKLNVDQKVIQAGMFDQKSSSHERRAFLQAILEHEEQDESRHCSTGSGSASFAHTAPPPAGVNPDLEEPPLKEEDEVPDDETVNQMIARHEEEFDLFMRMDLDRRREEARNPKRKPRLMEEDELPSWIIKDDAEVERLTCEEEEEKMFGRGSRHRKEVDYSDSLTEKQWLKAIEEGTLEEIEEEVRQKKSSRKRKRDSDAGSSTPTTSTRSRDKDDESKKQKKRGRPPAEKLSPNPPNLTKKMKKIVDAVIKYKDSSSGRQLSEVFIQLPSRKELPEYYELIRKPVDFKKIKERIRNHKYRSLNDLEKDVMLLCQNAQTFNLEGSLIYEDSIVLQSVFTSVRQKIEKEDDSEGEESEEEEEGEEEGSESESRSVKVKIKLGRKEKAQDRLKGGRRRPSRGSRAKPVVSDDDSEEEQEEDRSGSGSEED
Method in brief: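 Degradation is scaled from DMSO-treated cells (0%) to cells given 2 μM of a known BRM/BRG1 degrader (100%). HeLa cells stably carrying HiBiT-BRG1 plus LgBiT (5000/well) were lysed with Nano-Glo HiBiT detection reagent, shaken 10 min at RT, and luminescence read.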

Row | DC50 (HiBit-BRM fusion protein) | BRM HiBit Degradation Maximum measured (HiBit-BRM fusion protein) | DC50 [1] | Dmax [1] | SMILES
1 | < 100 nM | A (‘A’ = Maximum degradation >75%) | < 100 nM | > 75% | CS(=O)(=O)n1ccc(C(=O)NCC(=O)Nc2nc(-c3cccc(-c4ccnc(C5(C(=O)NCCCCCCNc6ccc7c(c6)C(=O)N(C6CCC(=O)NC6=O)C7=O)CC5)c4)c3)cs2)c1 (centres unmarked) [Compound 104, N-[2-[[4-[3-[2-[1-[6-[[2-(2,6-dioxo-3-piperidyl)-1,3-dioxo-isoindolin-5-yl]amino]hexylcarbamoyl]cyclopropyl]-4-pyridyl]phenyl]thiazol-2-yl]amino]-2-oxo-ethyl]-1-methylsulfonyl-pyrrole-3-carboxamide]
2 | > 10000 nM | C (‘C’ = Maximum degradation <50%) | 100 to 1000 nM | 50 to 75% | CS(=O)(=O)n1ccc(C(=O)N[C@@H](COCc2ccc(C(=O)NCCCC#Cc3ccc4c(c3)C(=O)N(C3CCC(=O)NC3=O)C4=O)cc2)C(=O)Nc2nc(-c3ccccc3)cs2)c1 (stereo partly drawn) [Compound 204, N-[5-[2-(2,6-dioxopiperidin-3-yl)-1,3-dioxoisoindol-5-yl]pent-4-yn-1-yl]-4-[[(2S)-2-[(1-methanesulfonylpyrrol-3-yl)formamido]-2-[(4-phenyl-1,3-thiazol-2-yl)carbamoyl]ethoxy]methyl]benzamide]
3 | > 10000 nM | C (‘C’ = Maximum degradation <50%) | > 10000 nM | < 50% | Cc1ncsc1-c1ccc(CNC(=O)[C@@H]2C[C@@H](O)CN2C(=O)[C@@H](NC(=O)CCCCC(=O)NCc2ccc(COC[C@H](NC(=O)c3ccn(S(C)(=O)=O)c3)C(=O)Nc3nc(-c4ccccc4)cs3)cc2)C(C)(C)C)cc1 [Compound 208, N-[(2S)-1-[(2S,4R)-4-hydroxy-2-([[4-(4-methyl-1,3-thiazol-5-yl)phenyl]methyl]carbamoyl)pyrrolidin-1-yl]-3,3-dimethyl-1-oxobutan-2-yl]-N′-[(4-[[(2S)-2-[(1-methanesulfonylpyrrol-3-yl)formamido]-2-[(4-phenyl-1,3-thiazol-2-yl)carbamoyl]ethoxy]methyl]phenyl)methyl]hexanediamide]
4 | < 100 nM | A (‘A’ = Maximum degradation >75%) | 100 to 1000 nM | > 75% | Cc1ncsc1-c1ccc(CNC(=O)[C@@H]2C[C@@H](O)CN2C(=O)[C@@H](NC(=O)CCCCCCCCC(=O)NCc2cccc(-c3cccc(-c4csc(NC(=O)CNC(=O)c5ccn(S(C)(=O)=O)c5)n4)c3)c2)C(C)(C)C)cc1 [Compound 19, N′-[(1S)-1-[(2S,4R)-4-hydroxy-2-[[4-(4-methylthiazol-5-yl)phenyl]methylcarbamoyl]pyrrolidine-1-carbonyl]-2,2-dimethylpropyl]-N-[[3-[3-[2-[[2-[(1-methylsulfonylpyrrole-3-carbonyl)amino]acetyl]amino]thiazol-4-yl]phenyl]phenyl]methyl]decanediamide]
5 | > 10000 nM | C (‘C’ = Maximum degradation <50%) | > 10000 nM | < 50% | CS(=O)(=O)n1ccc(C(=O)NCC(=O)Nc2nc(-c3cccc(-c4ccnc(C5(C(=O)N6CC(CCOc7cccc8c7C(=O)N(C7CCC(=O)NC7=O)C8=O)C6)CC5)c4)c3)cs2)c1 (centres unmarked) [Compound 136, N-[4-[3-(2-[1-[3-(2-[[2-(2,6-dioxopiperidin-3-yl)-1,3-dioxoisoindol-4-yl]oxy]ethyl)azetidine-1-carbonyl]cyclopropyl]pyridin-4-yl)phenyl]-1,3-thiazol-2-yl]-2-[(1-methanesulfonylpyrrol-3-yl)formamido]acetamide]
6 | > 10000 nM | C (‘C’ = Maximum degradation <50%) | > 10000 nM | < 50% | CS(=O)(=O)n1ccc(C(=O)N[C@@H](COCc2ccc(C(=O)NCCCC#Cc3cccc4c3C(=O)N(C3CCC(=O)NC3=O)C4=O)cc2)C(=O)Nc2nc(-c3ccccc3)cs2)c1 (stereo partly drawn) [Compound 205, N-[5-[2-(2,6-dioxopiperidin-3-yl)-1,3-dioxoisoindol-4-yl]pent-4-yn-1-yl]-4-[[(2S)-2-[(1-methanesulfonylpyrrol-3-yl)formamido]-2-[(4-phenyl-1,3-thiazol-2-yl)carbamoyl]ethoxy]methyl]benzamide]
7 | > 10000 nM | C (‘C’ = Maximum degradation <50%) | > 10000 nM | < 50% | CS(=O)(=O)n1ccc(C(=O)NCC(=O)Nc2nc(-c3cccc(-c4cccc(CNC(=O)CCCCCCCOc5cccc6c5C(=O)N(C5CCC(=O)NC5=O)C6=O)c4)c3)cs2)c1 (centres unmarked) [Compound 59, N-(2-((4-(3′-((8-((2-(2,6-dioxopiperidin-3-yl)-1,3-dioxoisoindolin-4-yl)oxy)octanamido)methyl)-[1,1′-biphenyl]-3-yl)thiazol-2-yl)amino)-2-oxoethyl)-1-(methylsulfonyl)-1H-pyrrole-3-carboxamide]
8 | > 10000 nM | C (‘C’ = Maximum degradation <50%) | > 10000 nM | < 50% | Cc1ncsc1-c1ccc(CNC(=O)[C@@H]2C[C@@H](O)CN2C(=O)[C@@H](NC(=O)CN2CC(C(=O)NCc3cccc(-c4cccc(-c5csc(NC(=O)CNC(=O)c6ccn(S(C)(=O)=O)c6)n5)c4)c3)C2)C(C)(C)C)cc1 [Compound 157, (2S,4R)-4-hydroxy-1-[(2S)-2-[2-[3-([[3-(2-[2-[(1-methan-esulfonyl-pyrrol-3-yl)formamido]acetamido]-1,3-thiazol-4-yl)-[1,1-biphenyl]-3-yl]methyl]carbamoyl)azetidin-1-yl]acetamido]-3,3-dimethylbutanoyl]-N-[[4-(4-methyl-1,3-thiazol-5-yl)phenyl]methyl]pyrr-oledine-2-carboxamide]
9 | > 10000 nM | C (‘C’ = Maximum degradation <50%) | > 10000 nM | < 50% | CS(=O)(=O)n1ccc(C(=O)NCC(=O)Nc2nc(-c3cccc(-c4ccnc(C5(C(=O)NCCOCCOCCNc6ccc7c(c6)C(=O)N(C6CCC(=O)NC6=O)C7=O)CC5)c4)c3)cs2)c1 (centres unmarked) [Compound 101, N-[2-[[4-[3-[2-[1-[2-[2-[2-[[2-(2,6-dioxo-3-piperidyl)-1,3-dioxo-isoindolin-5-yl]amino]ethoxy]ethoxy]ethylcarbamoyl]-cyclopropyl]-4-pyridyl]phenyl]thiazol-2-yl]amino]-2-oxo-ethyl]-1-methylsulfonylpyrrole-3-carboxamide]
10 | > 10000 nM | C (‘C’ = Maximum degradation <50%) | > 10000 nM | < 50% | CN(CC(=O)NCCCCNc1ccc2c(c1)C(=O)N(C1CCC(=O)NC1=O)C2=O)c1cc(-c2cccc(-c3csc(NC(=O)CNC(=O)c4ccn(S(C)(=O)=O)c4)n3)c2)ccn1 (centres unmarked) [Compound 67]

Row | SMILES | DC50 (HiBit-BRM fusion protein) | BRM HiBit Degradation Maximum measured (HiBit-BRM fusion protein) | DC50 [1] | Dmax [1]
11 | CS(=O)(=O)n1ccc(C(=O)N[C@@H](COCc2ccc(CNC(=O)CCN3CCN(c4ccc5c(c4)C(=O)N(C4CCC(=O)NC4=O)C5=O)CC3)cc2)C(=O)Nc2nc(-c3ccccc3)cs2)c1 (stereo partly drawn) [Compound 215, (2S)-3-([4-[(3-[4-[2-(2,6-dioxopiperidin-3-yl)-1,3-dioxoisoindol-5-yl]piperazin-1-yl]propanamido)methyl]phenyl]methoxy)-2-[(1-methanesulfonylpyrrol-3-yl)formamido]-N-(4-phenyl-1,3-thiazol-2-yl)propanamide; formic acid] | 100 to 1000 nM | B (‘B’ = Maximum degradation ≥50% and ≤75%) | 100 to 1000 nM | > 75%
12 | CS(=O)(=O)n1ccc(C(=O)NCC(=O)Nc2nc(-c3cccc(-c4ccnc(C5(C(=O)N6CCN(CCCOc7ccc8c(c7)C(=O)N(C7CCC(=O)NC7=O)C8=O)CC6)CC5)c4)c3)cs2)c1 (centres unmarked) [Compound 135, N-[4-[3-(2-[1-[4-(3-[[2-(2,6-dioxopiperidin-3-yl)-1,3-dioxoisoindol-5-yl]oxy]propyl)piperazine-1-carbonyl]cyclopropyl]pyridin-4-yl)phenyl]-1,3-thiazol-2-yl]-2-[(1-methanesulfonylpyrrol-3-yl)formamido]acetamide] | 100 to 1000 nM | B (‘B’ = Maximum degradation ≥50% and ≤75%) | 100 to 1000 nM | > 75%
13 | CS(=O)(=O)n1ccc(C(=O)N[C@@H](COCc2ccc(C(=O)NCCOCc3cccc(COCCOc4ccc5c(c4)C(=O)N(C4CCC(=O)NC4=O)C5=O)c3)cc2)C(=O)Nc2nc(-c3ccccc3)cs2)c1 (stereo partly drawn) [Compound 237, N-[2-([3-[(2-[[2-(2,6-dioxopiperidin-3-yl)-1,3-dioxoisoindol-5-yl]oxy]ethoxy)methyl]phenyl]methoxy)ethyl]-4-[[(2S)-2-[(1-methanesulfonylpyrrol-3-yl)formamido]-2-[(4-phenyl-1,3-thiazol-2-yl)carbamoyl]ethoxy]methyl]benzamide] | 100 to 1000 nM | B (‘B’ = Maximum degradation ≥50% and ≤75%) | 100 to 1000 nM | 50 to 75%
14 | CS(=O)(=O)n1ccc(C(=O)N[C@@H](CCOCCCC(=O)N2CCN(CCOc3ccc4c(c3)C(=O)N(C3CCC(=O)NC3=O)C4=O)CC2)C(=O)Nc2nc(-c3ccccc3)cs2)c1 (stereo partly drawn) [Compound 219, (2S)-4-[4-[4-(2-[[2-(2,6-dioxopiperidin-3-yl)-1,3-dioxoisoindol-5-yl]oxy]ethyl)piperazin-1-yl]-4-oxobutoxy]-2-[(1-methanesulfonylpyrrol-3-yl)formamido]-N-(4-phenyl-1,3-thiazol-2-yl)butanamide] | > 10000 nM | C (‘C’ = Maximum degradation <50%) | > 10000 nM | < 50%
